# Experiments:
# [1] = test system: carrageenan-induced edema; assay: Anti-inflammatory effect 1: effect against carrageenan-induced edema; type: in vivo; conditions: mouse, leg volume 9 days after carrageenan
# Source text: Anti-inflammatory Effect 1: Effect Against Carrageenan-induced Edema
# Male ICR mice (4 weeks old, Japan Charles River Co., Ltd.) were pre-bred in a breeding cage for about one week, and-healthy mice were selected for the test.
# (2) Drugs Employed in the Test:
# Each test compound was suspended in a 0.5% carboxymethyl cellulose sodium (0.5% CMC-Na solution, product of Wako Pure Chemical Industries, Ltd.) or dissolved in purified water. The suspension or solution was perorally administered at a dose of 0.1 mL/10 g (body weight of each mouse).
# λ-Carrageenan (Picnin A, product of Zushi Kagaku) dissolved in physiological saline was used.
# The volume of the right rear leg of each mouse was measured by means of a plethysmometer (product of Ugo Basile). Subsequently, a 2% carrageenan solution (0.05 mL) was injected into the foot pad of the leg. Five days after the injection of carrageenan (inflammation-inducing agent), the volume of the leg was measured. The mice were divided into groups, each group containing 8 mice. From the day of division (i.e., 5 days after administration of carrageenan), each test compound was preorally administered once per day for four days. The leg volume was measured before administration of each test compound and on the day after the final administration day (i.e., 9 days after administration of carrageenan). Percent edema and percent inhibition due to the test compound were calculated in accordance with the following equations, respectively. Percent edema (%)=[(leg volume (mL) after inflammation treatment−leg volume (mL) before inflammation treatment)/(leg volume (mL) before inflammation treatment)]×100 Percent inhibition (%)=[percent edema of control group (%)−percent edema of test-compound-administered group (%))/(percent edema of control group (%))]×100
# RAW 264.7 cells [2] = assay: Effect of inhibiting production of IL-6 in LPS-stimulated RAW 264.7 cells (ELISA); type: cell-based; conditions: Mus musculus, RAW264.7, compound at 2 μg/mL, read-out: IL-6 production inhibitory effect Percent inhibition (%)
# Protocol: (§1) Effect of Inhibiting Production of NO and IL-6
# (§2) Growth of RAW 264.7 cells (mouse macrophage strains) was maintained in an RPMI 1640 medium containing 10% fetal bovine serum (FBS) and an antibiotic (10% FBS/RPMI) under culture conditions of 5% CO2 at 37° C. Upon testing, RAW 264.7 cells were washed with cold Dulbecco's phosphate buffered saline and subsequently removed from the plastic culture bottle by use of EDTA/trypsin. The thus-removed cells were centrifuged-and washed, followed by dilution with 10% FBS/RPMI to 4×10^5/mL. The cell suspension (0.5 mL) was added to each well of a 24-well-plate, and cultured under 5% CO2, at 37° C. for 16 hours. […] The live cells were washed once with 1% FBS/RPMI. Each test compound was diluted with the same medium, to thereby adjust the concentration to a predetermined level, and the liquid containing the test compound was added to the washed cells. […] NO contained in the culture supernatant was quantitated for its stable form (NO2^−) by use of a Griess reagent kit (product of Wako Pure Chemical Industries Ltd.). IL-6 was quantitated by use of an ELISA kit (product of Amersham) in accordance with the manual thereof. […]
# RAW 264.7 cells [3] = assay: Effect of inhibiting production of NO in LPS-stimulated RAW 264.7 cells (Griess reagent); type: cell-based, mouse; conditions: compound 2 μg/mL, RAW 264.7 cells stimulated with LPS 25 ng/mL
# Protocol: as §1, §2
compound,measurement,setting,value
"[O-][S+](CCOc1ccc(Cn2ccnc2)cc1)c1cnc(-c2ccccc2)c(-c2ccccc2)n1 (stereo not drawn) [Compound 1J, 5-(2-[4-(1H-imidazolylmethyl)phenoxy]ethyl)sulfinyl-2,3-diphenylpyrazine]",Percent inhibition (%) of carrageenan-induced edema,[1]; 10 mg/kg perorally once per day for four days,41.2%
"c1ccc(-c2ncc(OCCOc3ccc(Cn4ccnc4)cc3)nc2-c2ccccc2)cc1 [Compound 1A, 5-2-[4-(1H-imidazolylmethyl)phenoxy]ethoxy-2,3-diphenylpyrazine]",inhibition at 2 µg/mL,RAW 264.7 cells [2],54.6%
same,Percent inhibition (%) of carrageenan-induced edema,[1]; 3 mg/kg perorally once per day for four days,30.5%
same,inhibition at 2 µg/mL,"RAW 264.7 cells [3]; Mus musculus, RAW264.7, read-out: NO production inhibitory effect Percent inhibition (%)",86%
COc1ccc2c(c1)c(CC(=O)O)c(C)n2C(=O)c1ccc(Cl)cc1 [Indomethacin],Percent inhibition (%) of carrageenan-induced edema,[1]; 1 mg/kg perorally once per day for four days,23.8%
"5-(2-[4-(1H-Imidazolylmethyl)phenoxy]ethyl)sulfanil-2,3-diphenylpyrazine [Compound 1I]",NO production inhibitory effect Percent inhibition (%),RAW 264.7 cells [3],62.8%

# From patent US6958353B2, “Imidazole derivatives or salts thereof and drugs containing the derivatives or the salts” (Hisamitsu Medical Co., Ltd., priority 2000, dated 2005)
